Measurements published in ChEMBL document CHEMBL1135011, “Isolation and antimalarial activity of peroxydisulfate oxidation products of primaquine” (Bioorg Med Chem Lett, 2002).

What was measured:
Mus musculus [1] = test: Gametocytocidal activity against Plasmodium yoelii infected mice (2) on intraperitoneal dose of 10 mg/kg at 24 hr of mosquito feeding was determined and average of oocyst determined to find infectivity; format: functional
Mus musculus [2] = test: Gametocytocidal activity against Plasmodium yoelii infected mice (2) on intraperitoneal dose of 10 mg/kg at -1h of mosquito feeding was determined and average of oocyst determined to find infectivity; format: functional
Mus musculus [3] = test: Tested for in vivo gametocytocidal activity against Plasmodium yoelii infected mice (1), on intraperitoneal dose of 10 mg/kg at +24h of mosquito feeding; Activity = No of Oocytes for infectivity; format: functional
Plasmodium falciparum [4] = test: (§1) Effective concentration for gametocidal activity against Plasmodium falciparum FDL-HD; format: functional, organism-based
Mus musculus [5] = organism: Mus musculus; test: Activity by comparing the number of oocytes on midgets of mosquitoes fed on drug treated on mice (1) with those of insects fed on untreated animals at -1h of mosquito feeding; 18/20; format: functional
Mus musculus [6] = organism: Mus musculus; test: Activity by comparing the number of oocytes on midgets of mosquitoes fed on drug treated on mice (2) with those of insects fed on untreated animals at -1h of mosquito feeding; 5/15; format: functional
Plasmodium falciparum [7] = test: (§2) Effective concentration for schizonticidal activity against Plasmodium falciparum FDL-HD; format: functional
Mus musculus [8] = organism: Mus musculus; test: Activity by comparing the number of oocytes on midgets of mosquitoes fed on drug treated on mice (2) with those of insects fed on untreated animals at -1h of mosquito feeding; 13/15; format: functional
Mus musculus [9] = organism: Mus musculus; test: Activity by comparing the number of oocytes on midgets of mosquitoes fed on drug treated on mice (1) with those of insects fed on untreated animals at 24 hr of mosquito feeding; 10/12; format: functional
Mus musculus [10] = organism: Mus musculus; test: Activity by comparing the number of oocytes on midgets of mosquitoes fed on drug treated on mice (2) with those of insects fed on untreated animals at -1h of mosquito feeding; 12/15; format: functional
Mus musculus [11] = organism: Mus musculus; test: Activity by comparing the number of oocytes on midgets of mosquitoes fed on drug treated on mice (1) with those of insects fed on untreated animals at 6 hr of mosquito feeding; 16/20; format: functional
Plasmodium falciparum [12] = test: as §2; format: functional, organism-based
Mus musculus [13] = test: Tested for in vivo gametocytocidal activity against Plasmodium yoelii infected mice, on intraperitoneal dose of 10 mg/kg at -1h of mosquito feeding; Activity = No of Oocytes for infectivity; format: functional
Mus musculus [14] = test: Tested for in vivo gametocytocidal activity against Plasmodium yoelii infected mice (1), on intraperitoneal dose of 10 mg/kg at +6h of mosquito feeding; Activity = No of Oocytes for infectivity; format: functional
Plasmodium falciparum [15] = test: as §1; format: functional
Mus musculus [16] = test: Gametocytocidal activity against Plasmodium yoelii infected mice (2) on intraperitoneal dose of 10 mg/kg at 6 hr of mosquito feeding was determined and average of oocyst determined to find infectivity; format: functional
Mus musculus [17] = organism: Mus musculus; test: Activity by comparing the number of oocytes on midgets of mosquitoes fed on drug treated on 1 mice with those of insects fed on untreated animals at -1h of mosquito feeding; 15/15; format: functional
Mus musculus [18] = organism: Mus musculus; test: Activity by comparing the number of oocytes on midgets of mosquitoes fed on drug treated on mice (3) with those of insects fed on untreated animals at -1h of mosquito feeding; 8/11; format: functional
Mus musculus [19] = test: Gametocytocidal activity against Plasmodium yoelii infected mice (3) on intraperitoneal dose of 10 mg/kg at -1h of mosquito feeding was determined and average of oocysts determined to find infectivity; format: functional
Mus musculus [20] = test: Gametocytocidal activity against Plasmodium yoelii infected mice (2) on intraperitoneal dose of 10 mg/kg at -1h of mosquito feeding was determined and average of oocysts determined to find infectivity; format: functional
Mus musculus [21] = organism: Mus musculus; test: Activity by comparing the number of oocytes on midgets of mosquitoes fed on drug treated on 1 mice with those of insects fed on untreated animals at 24 hr of mosquito feeding; 0/20; format: functional
Mus musculus [22] = organism: Mus musculus; test: Activity by comparing the number of oocytes on midgets of mosquitoes fed on drug treated on mice (2) with those of insects fed on untreated animals at 6 hr of mosquito feeding; 0/20; format: functional
Mus musculus [23] = organism: Mus musculus; test: Activity by comparing the number of oocytes on midgets of mosquitoes fed on drug treated on mice (3) with those of insects fed on untreated animals at 6 hr of mosquito feeding; 0/10; format: functional
Mus musculus [24] = organism: Mus musculus; test: Activity by comparing the number of oocytes on midgets of mosquitoes fed on drug treated on 1 mice with those of insects fed on untreated animals at 6 hr of mosquito feeding; 0/20; format: functional
Mus musculus [25] = organism: Mus musculus; test: Activity by comparing the number of oocytes on midgets of mosquitoes fed on drug treated on mice (2) with those of insects fed on untreated animals at 24 hr of mosquito feeding; 0/20; format: functional
Mus musculus [26] = organism: Mus musculus; test: Activity by comparing the number of oocytes on midgets of mosquitoes fed on drug treated on mice (2) with those of insects fed on untreated animals at -1h of mosquito feeding; 16/20; format: functional
Mus musculus [27] = organism: Mus musculus; test: Activity by comparing the number of oocytes on midgets of mosquitoes fed on drug treated on 1 mice with those of insects fed on untreated animals at -1h of mosquito feeding; 18/20; format: functional

Row | SMILES | IC50 (Plasmodium falciparum [4]) [ug well-1] | IC90 (Plasmodium falciparum [7]) [ug well-1] | IC50 (Plasmodium falciparum [12]) [ug well-1] | Activity (Mus musculus [13]) | IC90 (Plasmodium falciparum [15]) [ug well-1] | further results
1 | COc1cc(NC(C)CCCN)c2ncccc2c1-c1c(OC)cc(NC(C)CCCN)c2ncccc12 (stereo unspecified) | 0.036 | 0.19 | 0.031 | >300 | 0.062 | Activity (Mus musculus [1]): 68.33; Activity (Mus musculus [2]): 260.3; Activity (Mus musculus [3]): >300; Ratio (Mus musculus [5]): 18; Ratio (Mus musculus [6]): 5; Ratio (Mus musculus [8]): 13; Ratio (Mus musculus [9]): 10; Ratio (Mus musculus [10]): 12; Ratio (Mus musculus [11]): 16; Activity (Mus musculus [14]): >300; Activity (Mus musculus [16]): 221.3
2 | COc1cc(NC(C)CCCN)c2ncccc2c1NC(C)CCCN (stereo unspecified) | 0.026 | 0.235 | 0.046 | 315 | 0.055 | Ratio (Mus musculus [17]): 15; Ratio (Mus musculus [18]): 8; Activity (Mus musculus [19]): 185; Activity (Mus musculus [20]): 240; Ratio (Mus musculus [21]): 0; Ratio (Mus musculus [22]): 0; Ratio (Mus musculus [23]): 0; Ratio (Mus musculus [24]): 0; Ratio (Mus musculus [25]): 0; Ratio (Mus musculus [26]): 16
3 | COc1c(O)c(NC(C)CCCN)c2ncccc2c1-c1c(OC)c(O)c(NC(C)CCCN)c2ncccc12 (stereo unspecified) | > 150 | 1.75 | 0.49 | – | >150 | –
4 | CC(CCCN)N(C(C)CCCN)C(C)CCCN (stereo unspecified) | 0.115 | 0.245 | 0.155 | – | 0.38 | –
5 | CC(CCCN)Nc1c(O)c(O)c(NC(C)CCCN)c2ncccc12 (stereo unspecified) | > 150 | >50 | > 50 | – | >150 | –
6 | CCN(CC)CCCC(C)Nc1ccnc2cc(Cl)ccc12 (stereo unspecified) [CHLOROQUINE] | – | 0.015 | 0.011 | – | – | –
7 | COc1cc(NC(C)CCCN)c2ncccc2c1 (stereo unspecified) [PRIMAQUINE] | 0.115 | – | – | 280.7 | 0.38 | Ratio (Mus musculus [21]): 0; Ratio (Mus musculus [27]): 18; Ratio (Mus musculus [24]): 0
